Data: ChEMBL document CHEMBL1127612, “Maleimidoethyl 3-(tri-n-butylstannyl)hippurate: a useful radioiodination reagent for protein radiopharmaceuticals to enhance target selective radioactivity localization” (J Med Chem, 1994)

Columns and labels:
Conditions in all cases: in vivo
[1] = test system: Mus musculus; experiment: Tested for biodistribution of radioactivity after 1 hr of intravenous injection in mice blood; type: ADME, organism-based
[2] = test system: Mus musculus; experiment: Tested for biodistribution of radioactivity after 3h of intravenous injection in mice blood; type: ADME, organism-based
[3] = test system: Mus musculus; experiment: Tested for biodistribution of radioactivity after 48 hr of intravenous injection in mice blood; type: ADME, organism-based
[4] = test system: Mus musculus; experiment: Tested for biodistribution of radioactivity after 6 hr of intravenous injection in mice blood; type: ADME, organism-based
[5] = test system: Mus musculus; experiment: Tested for biodistribution of radioactivity after 72 hr of intravenous injection in mice blood; type: ADME, organism-based
[6] = test system: Mus musculus; experiment: Tested for biodistribution of radioactivity after 48 hr of intravenous injection in mice stomach; type: ADME, organism-based
[7] = test system: Mus musculus; experiment: Tested for biodistribution of radioactivity after 6 hr of intravenous injection in mice intestine; type: ADME, organism-based
[8] = test system: Mus musculus; experiment: Tested for biodistribution of radioactivity after 48 hr of intravenous injection in mice intestine; type: ADME, organism-based
[9] = test system: Mus musculus; experiment: Tested for biodistribution of radioactivity after 48 hr of intravenous injection in mice kidneys; type: ADME, organism-based
[10] = test system: Mus musculus; experiment: Tested for biodistribution of radioactivity after 48 hr of intravenous injection in mice liver; type: ADME, organism-based
[11] = test system: Mus musculus; experiment: Tested for biodistribution of radioactivity after 48 hr of intravenous injection in mice lung; type: ADME, organism-based
[12] = test system: Mus musculus; experiment: Tested for biodistribution of radioactivity after 48 hr of intravenous injection in mice neck; type: ADME, organism-based
[13] = test system: Mus musculus; experiment: Tested for biodistribution of radioactivity after 48 hr of intravenous injection in mice spleen; type: ADME, organism-based
[14] = test system: Mus musculus; experiment: Tested for biodistribution of radioactivity after 6 hr of intravenous injection in mice kidneys; type: ADME, organism-based, Kidney
[15] = test system: Mus musculus; experiment: Tested for biodistribution of radioactivity after 6 hr of intravenous injection in mice liver; type: ADME, organism-based
[16] = test system: Mus musculus; experiment: Tested for biodistribution of radioactivity after 6 hr of intravenous injection in mice lung; type: ADME, organism-based
[17] = test system: Mus musculus; experiment: Tested for biodistribution of radioactivity after 6 hr of intravenous injection in mice neck; type: ADME, organism-based
[18] = test system: Mus musculus; experiment: Tested for biodistribution of radioactivity after 10 min of intravenous injection in mice blood; type: ADME, organism-based
[19] = test system: Mus musculus; experiment: Tested for biodistribution of radioactivity after 10 min of intravenous injection in mice kidneys; type: ADME, organism-based
[20] = test system: Mus musculus; experiment: Tested for biodistribution of radioactivity after 10 min of intravenous injection in mice liver; type: ADME, organism-based
[21] = test system: Mus musculus; experiment: Tested for biodistribution of radioactivity after 10 min of intravenous injection in mice lung; type: ADME, organism-based
[22] = test system: Mus musculus; experiment: Tested for biodistribution of radioactivity after 3h of intravenous injection in mice intestine; type: ADME, organism-based
[23] = test system: Mus musculus; experiment: Tested for biodistribution of radioactivity after 3h of intravenous injection in mice kidneys; type: ADME, organism-based, Kidney
[24] = test system: Mus musculus; experiment: Tested for biodistribution of radioactivity after 3h of intravenous injection in mice lung; type: ADME, organism-based
[25] = test system: Mus musculus; experiment: Tested for biodistribution of radioactivity after 3h of intravenous injection in mice neck; type: ADME, organism-based
[26] = test system: Mus musculus; experiment: Tested for biodistribution of radioactivity after 3h of intravenous injection in mice spleen; type: ADME, organism-based
[27] = test system: Mus musculus; experiment: Tested for biodistribution of radioactivity after 3h of intravenous injection in mice stomach; type: ADME, organism-based
[28] = test system: Mus musculus; experiment: Tested for biodistribution of radioactivity after 10 min of intravenous injection in mice neck; type: ADME, organism-based
[29] = test system: Mus musculus; experiment: Tested for biodistribution of radioactivity after 10 min of intravenous injection in mice spleen; type: ADME, organism-based
[30] = test system: Mus musculus; experiment: Tested for biodistribution of radioactivity after 10 min of intravenous injection in mice stomach; type: ADME, organism-based
[31] = test system: Mus musculus; experiment: Tested for biodistribution of radioactivity after 1 hr of intravenous injection in mice intestine; type: ADME, organism-based
[32] = test system: Mus musculus; experiment: Tested for biodistribution of radioactivity after 1 hr of intravenous injection in mice liver; type: ADME, organism-based
[33] = test system: Mus musculus; experiment: Tested for biodistribution of radioactivity after 1 hr of intravenous injection in mice lung; type: ADME, organism-based
[34] = test system: Mus musculus; experiment: Tested for biodistribution of radioactivity after 6 hr of intravenous injection in mice spleen; type: ADME, organism-based
[35] = test system: Mus musculus; experiment: Tested for biodistribution of radioactivity after 6 hr of intravenous injection in mice stomach; type: ADME, organism-based
[36] = test system: Mus musculus; experiment: Tested for biodistribution of radioactivity after 72 hr of intravenous injection in mice intestine; type: ADME, organism-based
[37] = test system: Mus musculus; experiment: Tested for biodistribution of radioactivity after 72 hr of intravenous injection in mice liver; type: ADME, organism-based
[38] = test system: Mus musculus; experiment: Tested for biodistribution of radioactivity after 72 hr of intravenous injection in mice lung; type: ADME, organism-based
[39] = test system: Mus musculus; experiment: Tested for biodistribution of radioactivity after 72 hr of intravenous injection in mice neck; type: ADME, organism-based
[40] = test system: Mus musculus; experiment: Tested for biodistribution of radioactivity after 72 hr of intravenous injection in mice spleen; type: ADME, organism-based
[41] = test system: Mus musculus; experiment: Tested for biodistribution of radioactivity after 72 hr of intravenous injection in mice stomach; type: ADME, organism-based
[42] = test system: Mus musculus; experiment: Tested for biodistribution of radioactivity after 1 hr of intravenous injection in mice neck; type: ADME, organism-based
[43] = test system: Mus musculus; experiment: Tested for biodistribution of radioactivity after 1 hr of intravenous injection in mice spleen; type: ADME, organism-based
[44] = test system: Mus musculus; experiment: Tested for biodistribution of radioactivity after 1 hr of intravenous injection in mice stomach; type: ADME, organism-based
[45] = test system: Mus musculus; experiment: Tested for biodistribution of radioactivity after 24 hr of intravenous injection in mice feces; type: ADME, organism-based
[46] = test system: Mus musculus; experiment: Tested for biodistribution of radioactivity after 24 hr of intravenous injection in mice intestine; type: ADME, organism-based
[47] = test system: Mus musculus; experiment: Tested for biodistribution of radioactivity after 24 hr of intravenous injection in mice kidneys; type: ADME, organism-based, Kidney
[48] = test system: Mus musculus; experiment: Tested for biodistribution of radioactivity after 24 hr of intravenous injection in mice liver; type: ADME, organism-based
[49] = test system: Mus musculus; experiment: Tested for biodistribution of radioactivity after 24 hr of intravenous injection in mice lung; type: ADME, organism-based
[50] = test system: Mus musculus; experiment: Tested for biodistribution of radioactivity after 24 hr of intravenous injection in mice neck; type: ADME, organism-based
[51] = test system: Mus musculus; experiment: Tested for biodistribution of radioactivity after 24 hr of intravenous injection in mice spleen; type: ADME, organism-based
[52] = test system: Mus musculus; experiment: Tested for biodistribution of radioactivity after 24 hr of intravenous injection in mice stomach; type: ADME, organism-based
[53] = test system: Mus musculus; experiment: Tested for biodistribution of radioactivity after 3h of intravenous injection in mice liver; type: ADME, organism-based
[54] = test system: Mus musculus; experiment: Tested for biodistribution of radioactivity after 1 hr of intravenous injection in mice kidneys; type: ADME, organism-based, Kidney
[55] = test system: Mus musculus; experiment: Tested for biodistribution of radioactivity after 24 hr of intravenous injection in mice urine; type: ADME, organism-based
[56] = test system: Mus musculus; experiment: Tested for biodistribution of radioactivity after 24 hr of intravenous injection in mice blood; type: ADME, organism-based
[57] = test system: Mus musculus; experiment: Tested for biodistribution of radioactivity after 10 min of intravenous injection in mice intestine; type: ADME, organism-based
[58] = test system: Mus musculus; experiment: Tested for biodistribution of radioactivity after 72 hr of intravenous injection in mice kidneys; type: ADME, organism-based

- Dose/g [1]: 29.3%
- Dose/g [2]: 25.11%
- Dose/g [3]: 5.78%
- Dose/g [4]: 20.31%
- Dose/g [5]: 4.22%
- Dose/organ [6]: 0.2%
- Dose/organ [7]: 1.27%
- Dose/organ [8]: 0.4%
- Dose/organ [9]: 1.12%
- Dose/organ [10]: 1.53%
- Dose/organ [11]: 1.98%
- Dose/organ [12]: 0.16%
- Dose/organ [13]: 0.92%
- Dose/organ [14]: 4.45%
- Dose/organ [15]: 5.39%
- Dose/organ [16]: 7.6%
- Dose/organ [17]: 0.45%
- Dose/organ [18]: 33.64%
- Dose/organ [19]: 6.08%
- Dose/organ [20]: 9.81%
- Dose/organ [21]: 10.37%
- Dose/organ [22]: 1.93%
- Dose/organ [23]: 5%
- Dose/organ [24]: 8.06%
- Dose/organ [25]: 0.51%
- Dose/organ [26]: 3.67%
- Dose/organ [27]: 1.04%
- Dose/organ [28]: 0.34%
- Dose/organ [29]: 7.15%
- Dose/organ [30]: 0.54%
- Dose/organ [31]: 1.96%
- Dose/organ [32]: 8.51%
- Dose/organ [33]: 7.08%
- Dose/organ [34]: 3.19%
- Dose/organ [35]: 0.84%
- Dose/organ [36]: 0.28%
- Dose/organ [37]: 1.05%
- Dose/organ [38]: 1.52%
- Dose/organ [39]: 0.09%
- Dose/organ [40]: 0.49%
- Dose/organ [41]: 0.14%
- Dose/organ [42]: 0.75%
- Dose/organ [43]: 4.84%
- Dose/organ [44]: 0.92%
- Dose/organ [45]: 0.89%
- Dose/organ [46]: 0.67%
- Dose/organ [47]: 2.08%
- Dose/organ [48]: 2.46%
- Dose/organ [49]: 4.06%
- Dose/organ [50]: 0.32%
- Dose/organ [51]: 1.41%
- Dose/organ [52]: 0.28%
- Dose/organ [53]: 6.43%
- Dose/organ [54]: 5.35%
- Dose/organ [55]: 23.39%
- Dose/g [56]: 9.64%
- Dose/organ [57]: 0.8%
- Dose/organ [58]: 0.82%
SMILES: N[C@@H](CSC1CC(=O)N(CCOC(=O)CNC(=O)c2cccc(I)c2)C1=O)C(=O)O (stereo partly drawn)
